Experimental data: publication PMC11178787, “Development of a natural product optimization strategy for inhibitors against MraY, a promising antibacterial target” (Nature Communications, 2024)

Key:
K. pneumoniae ATCC 13883 = tested on: T1, K. pneumoniae ATCC 13883; test: microbe, parasite or virus in culture; details: Klebsiella pneumoniae, ATCC13883
T1 construct: ATCC 13883
Protocol: (§1) MICs were determined by a microdilution broth method as recommended by the CLSI with MHB-II. For MICs of stable analogues, a 2-fold dilution of each compound was prepared in DMSO at 100-fold of the final concentration. The strains were inoculated with 5 × 10^5 cfu/mL in 96-well plates (each 100 μL/well), and 1 μL of DMSO solutions of the samples were added (contained less than 1% DMSO). The plates were incubated at 37 °C for 18 h and then MICs were determined. MICs of stable analogues in Table 1 were the highest value in three trials. MICs in Supplementary Table 1 were determined in one trial.  Fig. 2 Results of biological evaluations of hydrazone library. a General structures of hydrazine fragment moiety are shown. Each hydrazine class are represented by different colours (green; BZ, cyan; PA, grey; AC, yellow; AA, orange; LA). b–h MraY inhibitory activity and antibacterial activity of the hydrazone library. The bar graphs show the relative enzyme activity with DMSO as 100% when the compound is treated at given concentration (b,c; TUN at 100 nM, d,e; MRY at 10 nM, f.g; MRD at 100 nM, h; CAP at 1000 nM. n = 1), with the lower bars indicating higher inhibitory activity. The colour of the bars corresponds to Fig. 2a. […] Data of control compounds (van: vancomycin, col: colistin) are shown left column in each panel. E. faecium ATCC 35667, S. aureus ATCC 29213, P. aeruginosa ATCC 27853, K. pneumoniae ATCC 13883, E. cloacae ATCC 13047, A. baumannii ATCC 19606, E. coli ATCC 25922.

P. aeruginosa ATCC 27853 = tested on: T2, P. aeruginosa ATCC 27853; test: microbe, parasite or virus in culture; details: Pseudomonas aeruginosa, ATCC27853
T2 construct: ATCC 27853
Protocol: as §1

What does the source list for `CN[C@H](CC(C)C)C(=O)N[C@H]1C(=O)N[C@@H](CC(N)=O)C(=O)N[C@H]2C(=O)N[C@H]3C(=O)N[C@H](C(=O)N[C@H](C(=O)O)c4cc(O)cc(O)c4-c4cc3ccc4O)[C@H](O)c3ccc(c(Cl)c3)Oc3cc2cc(c3O[C@@H]2O[C@H](CO)[C@@H](O)[C@H](O)[C@H]2O[C@H]2C[C@](C)(N)[C@H](O)[C@H](C)O2)Oc2ccc(cc2Cl)[C@H]1O` [vancomycin]?
MIC (K. pneumoniae ATCC 13883): > 50 µM; MIC (P. aeruginosa ATCC 27853): > 50 µM

What does the source list for `CC1(C)S[C@@H]2[C@H](NC(=O)[C@H](N)c3ccccc3)C(=O)N2[C@H]1C(=O)O` [ampicillin]?
MIC (K. pneumoniae ATCC 13883): > 50 µM; MIC (P. aeruginosa ATCC 27853): > 50 µM
